Measurements published in a melting point compilation (Tetko et al.; mined from patent text by program, amines drawn as free bases though some values may be those of a salt).

| Structure (SMILES) | melting point |
| --- | --- |
| Cc1c(Br)c2cnnc(Cl)c2n1Cc1ccccc1 | 138 to 140 °C |
| N#Cc1ccc(C(=O)N2CCC3(CC2)OCCO3)cn1 | 133 to 135 °C |
| CC(O)(c1ccccc1)c1cncs1 (centres undefined) | 86 to 87 °C |
| O=C(O)CCC=C(Cl)Cl | 117 to 118 °C |
| CC(C)(C)OC(=O)c1ccc(N2CC(CN=[N+]=[N-])OC2=O)cc1F (centres undefined) | 91 to 92 °C |
| COc1nc2ncccc2c2nc(SCc3ccccc3)nn12 | 282 to 284 °C |
| CCCOc1ccc(-c2ccc3c(c2)C=C(C(=O)OC)CCN3C=O)cc1 | 152 to 153 °C |
| CCCCc1nn2cc(C(=O)OCC)ccc2c1C(=O)c1ccc(Br)cc1 | < 50 °C |
| NC(=O)C(CCC(=O)O)N1Cc2c(N)cccc2C1=O (centres undefined) | 334 to 336 °C |
| Cc1nc(N)nc(N)c1CCCC(C)c1ccc(-c2cc(F)cc(F)c2)cc1 (centres undefined) | 129 to 134 °C |
| Cn1ncc(/C=C/C(=O)Nc2ccc(Cc3nc(C(N)=O)cs3)cc2)c1-c1ccc(F)cc1 | 159 to 160 °C |
| Clc1ccc2c(NNc3ccccc3)c3c(nc2c1)CCSC3 | 201 to 202 °C |
| OC(CNc1ccc(Cl)c(Cl)c1)Cn1ccnc1 (centres undefined) | 98 to 100 °C |
| CC(C)C[C@@H](C(=O)N1CCN(C(c2ccc(F)cc2)c2ccc(F)cc2)CC1)N(C)C1CCCCC1 | 171 to 182 °C |
| Fc1ccc2[nH]c3c4ccccc4nc-3cc2c1 | > 246 °C |
| CS(=O)(=O)Nc1cc2c(cc1Oc1ccc(F)cc1F)C(=O)CCO2 | 164 to 165 °C |
| c1ccc(-c2ncc(-c3csc(-c4ccccc4)n3)cn2)cc1 | 214 to 216 °C |
| O=c1c2c(oc3ncccc13)-c1ccccc1CCC2 | 186 to 190 °C |
| COc1cc(OC)nc(C(C(=O)NS(C)(=O)=O)C(C)C)n1 (centres undefined) | 99 to 102 °C |
| CC(C)c1nc(CO)[nH]c1Sc1cc(Cl)cc(Cl)c1 | 191 to 192 °C |
| OCc1cc(OCc2ccc(C(F)(F)F)cc2)ccn1 | 96 to 98 °C |
| COc1ccc2c(c1)c(-c1[nH]c3nccnc3c1C)cn2C | 243 to 244 °C |
| NC(=O)c1ccnc(OCc2nc3cc(Cl)ccc3s2)c1 | 220 to 222 °C |
| O=C1c2ccc(-c3nnn[nH]3)cc2C(=O)c2cc(N3CCCCC3)ccc21 | 297 to 298 °C |
| CN1CC[C@@H](c2c(O)cc(O)c3c(=O)cc(-c4ccc(Br)cc4Cl)oc23)[C@@H]1CO | 155 to 156 °C |
| CN(C)C(=O)CCc1c[nH]c(-c2cccs2)c1 | 107 to 109 °C |

| Structure (SMILES) | melting point |
| --- | --- |
| CC(=O)CCc1ccc(C(=O)c2ccc(Cl)cc2)cc1 | 91 to 92 °C |
| COC(=O)CCC(=O)c1ccc2c(c1)CC(CNC(C)=O)C2 (centres undefined) | 139 to 140 °C |
| CN(C)C(=O)C(=O)c1c(Cl)n(C)c2ccc(Cl)cc12 | 205 to 206 °C |
| NCC(=O)OCc1ccc([N+](=O)[O-])cc1 | 45 to 50 °C |
| Cc1c(C(=O)N[C@@H](Cc2ccc(OCc3ccoc3)cc2)C(=O)O)oc2cc(-c3ccc(Cl)cc3)ccc12 | 108 to 110 °C |
| CCSc1ccc(NC=O)cc1S(N)(=O)=O | 127 °C |
| CCOP(=O)(CC(=O)NC1CC1)OCC | 51 to 56 °C |
| C=C(c1ccc(N(C)C)cc1)c1ccc(N(C)C)cc1 | 115 °C |
| COc1ccc(OCC(O)CN2CCN(c3ccccc3C(=O)O)CC2)c(C(C)(C)C)c1 (centres undefined) | 171 to 172 °C |
| Cc1ccc(C)n1C(C)c1nccc(I)c1F (centres undefined) | 156 to 158 °C |
| Cc1cn(C2OC(C)(CO)C(O)C2F)c(=O)[nH]c1=O (centres undefined) | 80 °C |
| Oc1ccc2cc(-c3csc(-c4ccccc4)n3)ccc2c1Br | 176 to 183 °C |
| CCCCc1c(Cl)cccc1NC(=O)C(C)(C)C | 88 to 89 °C |
| CSc1nc2c([nH]1)N(Cc1ccc(Cl)cc1)C1NCCN1C2=O (centres undefined) | 296 to 297 °C |
| CN1CC[C@@H](c2c(O)cc(O)c3c(=O)cc(-c4cc(F)ccc4Br)oc23)[C@@H]1CO | 145 to 147 °C |
| [N-]=[N+]=Nc1ccc(Cl)cc1C(=NO)c1ccccc1 | 125 to 132 °C |
| CC(=O)OCCCC#Cc1ccccc1S(N)(=O)=O | 136 to 138 °C |
| Cc1oc(-c2ccccc2)nc1COc1ccc(/C=C/C(=O)C(=O)O)cc1 | 197 to 198 °C |
| O=c1[nH]c(CCCN2CCCC2)cc2c(O)cccc12 | 222 to 225 °C |
| CN1CC[C@H](c2ccc(Cl)cc2)[C@@H](O)C1 (racemic) | 99 to 100 °C |
| CCOC(=O)C1=C(C)NC(C)=C(C(=O)OCC)C1c1ccccc1/C=C/C(=O)OCC(C)C | 172 to 174 °C |
| COc1ccc(-c2sc(-c3ccccc3)cc2OC(C)=O)cc1 | 81 to 82 °C |
| Cc1cc([N+](=O)[O-])ccc1N=C1C2CC3CC(C2)CC(C3)N1CC(C)C | 101 to 102 °C |
| CCC(=O)N1N=C(c2ccc([N+](=O)[O-])c(C)c2)c2cc(Cl)ccc2C=C1C | 134 to 138 °C |
| CC(=O)OC1CC(OCc2ccccc2)C2COC1O2 (centres undefined) | 85 to 87 °C |
| O=S(=O)(c1ccc(F)cc1)N1CCCC1c1ccco1 (racemic) | 69 °C |

| Structure (SMILES) | melting point |
| --- | --- |
| Cc1nccn1CC1CCC(Nc2ccccc2I)=CC1=O (centres undefined) | 88 to 100 °C |
| O=C1c2ccccc2C(=O)N1[C@H]1C=C[C@@H](O)CC1 (racemic) | 126 to 129 °C |
| NCC1Cc2cc(F)cc(-c3cc(Cl)ccc3Cl)c2O1 (centres undefined) | 165 to 166 °C |
| COc1ccc(C=CC(=O)Nc2cnc3c(C)cc(C)cc3c2-c2ccccc2Cl)c(OC)c1OC | 200 to 201 °C |
| COc1ccccc1N1CCN(CCCCN2CCN(c3ccccc3)C2=O)CC1 | 94 to 95 °C |
| O=C(O)c1cn(-c2ccc(F)cc2)c2c(F)c(N3Cc4ccc(Br)cc4C3)c(F)cc2c1=O | > 300 °C |
| O=c1c2ccccc2[nH]c(=S)n1CCCO | 174 to 176 °C |
| CC1=C(/C=C/C(C)=C/C=C/C(C)=C\C(=O)O)C(C)(C)C(O)CC1 (centres undefined) | 152 to 154 °C |
| O=C(NC1CCN(CCC(O)c2ccc3c(c2)OCCO3)CC1)c1ccccc1 (centres undefined) | 193 to 197 °C |
| CCC(CC)Nc1cc(C)nc(Oc2c(C)cc(C)cc2C)c1CN | 117 to 119 °C |
| COc1cc(O)c(C=O)cc1C12CC3CC(CC(C3)C1)C2 | 191 to 193 °C |
| CCOC(=O)C(=O)c1ccccc1Nc1c(Cl)cccc1Cl | 84 to 85.5 °C |
| COc1ccc(C2=NO[C@]3(CCOC3)C2)cc1OC1Cc2ccccc2C1 | 138 °C |
| CC1(C)Oc2ccc(C#N)cc2[C@@H](N2CCN(c3ccccc3)C2=O)[C@@H]1O (relative stereo) | 205 to 206 °C |
| Cc1cc(C)n(C(=O)C(C)NS(=O)(=O)c2ccc(Cl)cc2)n1 (centres undefined) | 150 °C |
| O=C(Nc1ccc(-n2nc(-c3cccnc3)cc2C(F)F)cc1)c1ccncc1F | 176 to 178 °C |
| CN(CCOc1ccc(C=C2SC(=O)NC2=O)cc1)c1nc2ccccc2o1 | 227 to 229 °C |
| C=C(CCCCCCCCCCCCCCCC)CC(CO)CO | 64 to 65 °C |
| CC(C)n1nc(-c2cnc(N)nc2-c2cccs2)ccc1=O | 213 °C |
| CCOC(=O)N1C(=O)[C@H](O)[C@@H]1c1ccccc1 | 112 to 113 °C |
| CCOC(=O)c1c(C(F)(F)F)nc(C(F)F)c(C(=O)OC)c1OCC | 59 to 61 °C |
| COC(=O)C(C)(C)Cc1cc2ccc(O)cc2n1C | 125 to 126 °C |
| CCOC(=O)C1(O)C(=O)N2CCOc3cc(Cl)cc1c32 (centres undefined) | 186 to 187 °C |
| O=C1CCC(N2Cc3c(OCc4ccc(CCN5CCOCC5)cc4)cccc3C2=O)C(=O)N1 (centres undefined) | 230 to 232 °C |
| C/C(=C\c1ccc(O)cc1)c1ccc2c(c1)C(C)(C)CCC2(C)C | 138 to 140 °C |
| CC(Oc1ccc(Oc2nc3ccc(Cl)cc3s2)cc1)C(=S)OC[Si](C)(C)C (centres undefined) | 90 °C |

| Structure (SMILES) | melting point |
| --- | --- |
| Cc1ccc2c(=O)nc(-c3ccccn3)sc2c1 | 225 °C |
| [N-]=[N+]=NC[C@@H]1CN(c2cc(F)c(N3CNC(=O)C3)c(F)c2)C(=O)O1 | 186 to 188 °C |
| c1ccc(C2CN(CCc3ccccn3)Cc3c2[nH]c2ccccc32)cc1 (centres undefined) | 190 to 192 °C |
| CCCN(CCC)C(N)=O | 69 °C |
| O=C1CCC(N2Cc3c(OCc4ccc(CN5CCCOCC5)cc4)cccc3C2=O)C(=O)N1 (centres undefined) | 119 to 121 °C |
| COc1cc(Cc2cnc(N)nc2N)c2ccccc2c1OC | 228 to 230 °C |
| CCCCCCCCCCCCCCCCNc1ccc(C(=O)OCC(O)CO)cc1 (centres undefined) | 112 °C |
| O=C(c1ccccc1)N1CC2CSCC(C2)C1 | 95 to 96 °C |
| OC(Cc1ccc(Cl)cc1Cl)n1ccnc1 (centres undefined) | 139 to 141 °C |
| CN(C)S(=O)(=O)n1ccc2cnccc21 | 87 °C |
| COC(=O)c1ccc(OC)c(NC(=N)c2ccc(F)c(Cl)c2)c1 | 120 °C |
| O=[N+]([O-])c1ccc2oc(-c3cccs3)nc2c1 | 186 to 188 °C |
| CCCCCCCCC(SCCCCCC)C(=O)Nc1c(SC)nc(C)nc1SC (centres undefined) | 95 to 97.5 °C |
| CN(C)C(=O)C(=O)c1ccc(Cl)cc1C(=O)c1ccccc1 | 88 to 90 °C |
| OC1CSC(Oc2cncc(-c3ccc(Cl)nc3)c2)C(O)C1O (centres undefined) | 211 °C |
| NCc1ccc2c(c1)ncn2-c1cccc(-c2cccnc2)c1 | 107 to 110 °C |
| Cn1nc(C(F)(F)F)nc1Oc1cc(On2c(=O)cc(C(F)(F)F)n(C)c2=O)c(F)cc1Cl | 138 to 140 °C |
| CC(CCC(=O)NCCS(=O)(=O)O)C1CCC2C3C(O)CC4CC(NC(=O)CNC(=O)OC(C)(C)C)CCC4(C)C3CC(O)C12C (centres undefined) | 150 to 155 °C |
| C[Si](C)(C)CC(C#N)CC(=O)O (centres undefined) | 39 to 41 °C |
| Cc1cc(O)ccc1-c1cc2cc(O)ccc2o1 | 167 to 169 °C |
| CC12CCC(=O)C=C1CCC1C2CCC2(C)C1CC(O)C2NCC(=O)C(F)(F)F (centres undefined) | 217 to 220 °C |
| COC(=O)c1cc2cc([N+](=O)[O-])c(OCc3ccccc3)cc2[nH]1 | 184 to 187 °C |
| Cn1nc(-c2cc(CBr)c(Cl)cc2F)c(Cl)c1C(F)(F)F | 112 to 114 °C |
| Cc1ccc(C(=O)Nc2ccc(N3CCN(C)CC3)c(C(F)(F)F)c2)cc1Nc1nccc(-c2cccnc2)n1 | 214 to 217 °C |
| CN(C)C(=O)CC1(C)OCCc2c1[nH]c1c3c(ccc21)CCCC3 (centres undefined) | 176 to 178 °C |
| CC(C)(C)OC(=O)N[C@H]1CC[C@H](CCN2CCN(c3cccc(Cl)c3Cl)CC2)CC1 | 150 to 154 °C |
